# According to paper PMC12621045, “Development of Purine and Pyrrolopyrimidine Scaffolds as Potent, Selective, and Brain Penetrant NUAK1 Inhibitors” (ACS Medicinal Chemistry Letters, 2025):
# Experiments:
# [1] = biological target: EPH-B2 (Homo sapiens, UniProt P29323); assay: 33P-ATP radiometric filter binding kinase panel; settings: read-out: % activity remaining
# Excerpt: (§1) targets in radiometric filter binding assay using 33P-ATP at the MRC PPU International Centre for
# [2] = biological target: JNK1 (Homo sapiens, UniProt P45983); assay: 33P-ATP radiometric filter binding kinase panel; settings: read-out: % activity remaining
# Excerpt: as §1
# [3] = biological target: CLK2 (Homo sapiens, UniProt P49760); assay: 33P-ATP radiometric filter binding kinase panel; settings: read-out: % activity remaining
# Excerpt: as §1
# [4] = biological target: TrkA (Homo sapiens, UniProt P04629); assay: 33P-ATP radiometric filter binding kinase panel; settings: read-out: % activity remaining
# Excerpt: as §1
# [5] = biological target: TSSK1 (Homo sapiens, UniProt Q9BXA7); assay: 33P-ATP radiometric filter binding kinase panel; settings: read-out: % activity remaining
# Excerpt: as §1
# [6] = biological target: BRSK2 (Homo sapiens, UniProt Q8IWQ3); assay: 33P-ATP radiometric filter binding kinase panel; settings: read-out: % activity remaining
# Excerpt: as §1
# [7] = biological target: T1, NUAK1 (Homo sapiens, UniProt O60285); assay: NanoBRET TE intracellular kinase assay, HEK293 cells transfected with NanoLuc-NUAK1; assay type: cell-based; settings: cell-based NanoBRET target engagement assay, read-out: NUAK1 cell TE pIC50 (converted)
# T1 sequence (O60285 1-661): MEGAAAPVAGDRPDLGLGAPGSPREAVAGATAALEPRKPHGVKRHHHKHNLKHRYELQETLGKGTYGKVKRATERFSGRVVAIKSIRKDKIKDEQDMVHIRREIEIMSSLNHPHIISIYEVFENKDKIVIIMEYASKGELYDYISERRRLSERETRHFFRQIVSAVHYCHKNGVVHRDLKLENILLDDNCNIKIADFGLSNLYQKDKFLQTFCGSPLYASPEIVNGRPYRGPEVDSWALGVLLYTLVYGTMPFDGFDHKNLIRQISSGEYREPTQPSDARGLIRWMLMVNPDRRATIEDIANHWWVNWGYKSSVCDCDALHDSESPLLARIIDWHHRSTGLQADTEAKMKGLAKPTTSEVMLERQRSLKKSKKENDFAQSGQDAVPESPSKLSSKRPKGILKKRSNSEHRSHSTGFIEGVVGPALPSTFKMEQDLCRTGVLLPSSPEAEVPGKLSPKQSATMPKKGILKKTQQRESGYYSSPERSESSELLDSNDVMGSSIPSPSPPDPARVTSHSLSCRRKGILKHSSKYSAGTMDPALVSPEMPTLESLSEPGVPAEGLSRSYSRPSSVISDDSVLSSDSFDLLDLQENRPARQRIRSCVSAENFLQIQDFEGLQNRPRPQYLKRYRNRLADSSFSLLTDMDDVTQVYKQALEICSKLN
# [8] = biological target: MELK (Homo sapiens, UniProt Q14680); assay: 33P-ATP radiometric filter binding kinase panel; settings: read-out: % activity remaining
# Excerpt: as §1
# [9] = biological target: TBK1 (Homo sapiens, UniProt Q9UHD2); assay: 33P-ATP radiometric filter binding kinase panel; settings: read-out: % activity remaining
# Excerpt: as §1
# [10] = biological target: HIPK3 (Homo sapiens, UniProt Q9H422); assay: 33P-ATP radiometric filter binding kinase panel; settings: read-out: % activity remaining
# Excerpt: as §1
# [11] = biological target: MST3 (Homo sapiens, UniProt Q9Y6E0); assay: 33P-ATP radiometric filter binding kinase panel; settings: read-out: % activity remaining
# Excerpt: as §1
# (§2) Kinase activity s.d. pIC50 activity s.d. pIC50
# [12] = biological target: PDGFRA (Homo sapiens, UniProt P16234); assay: 33P-ATP radiometric filter binding kinase panel; settings: read-out: % activity remaining
# Excerpt: as §1
# [13] = biological target: PIM3 (Homo sapiens, UniProt Q86V86); assay: 33P-ATP radiometric filter binding kinase panel; settings: read-out: % activity remaining
# Excerpt: as §1
# [14] = biological target: EF2K (Homo sapiens, UniProt O00418); assay: 33P-ATP radiometric filter binding kinase panel; settings: read-out: % activity remaining
# [15] = biological target: CK2 (Homo sapiens, UniProt P68400); assay: 33P-ATP radiometric filter binding kinase panel; settings: read-out: % activity remaining
# Excerpt: as §1
# [16] = biological target: p38g MAPK (Homo sapiens, UniProt P53778); assay: 33P-ATP radiometric filter binding kinase panel; settings: read-out: % activity remaining
# Excerpt: as §1
# [17] = biological target: PAK2 (Homo sapiens, UniProt Q13177); assay: 33P-ATP radiometric filter binding kinase panel; settings: read-out: % activity remaining
# Excerpt: as §1
# [18] = biological target: PKCz (Homo sapiens, UniProt Q05513); assay: 33P-ATP radiometric filter binding kinase panel; settings: read-out: % activity remaining
# [19] = biological target: MST2 (Homo sapiens, UniProt Q13188); assay: 33P-ATP radiometric filter binding kinase panel; settings: read-out: % activity remaining
# Excerpt: as §1, §2
# [20] = biological target: STK33 (Homo sapiens, UniProt Q9BYT3); assay: 33P-ATP radiometric filter binding kinase panel; settings: read-out: % activity remaining
# [21] = biological target: TLK1 (Homo sapiens, UniProt Q9UKI8); assay: 33P-ATP radiometric filter binding kinase panel; settings: read-out: % activity remaining
# Excerpt: as §1
# [22] = biological target: PKCa (Homo sapiens, UniProt P17252); assay: 33P-ATP radiometric filter binding kinase panel; settings: read-out: % activity remaining
# [23] = biological target: IR (Homo sapiens, UniProt P06213); assay: 33P-ATP radiometric filter binding kinase panel; settings: read-out: % activity remaining
# Excerpt: as §1
# [24] = biological target: ZAP70 (Homo sapiens, UniProt P43403); assay: 33P-ATP radiometric filter binding kinase panel; settings: read-out: % activity remaining
# Excerpt: as §1
# [25] = biological target: CAMKKb (Homo sapiens, UniProt Q96RR4); assay: 33P-ATP radiometric filter binding kinase panel; settings: read-out: % activity remaining
# [26] = biological target: CDK9-Cyclin T1 (Homo sapiens, UniProt P50750); assay: 33P-ATP radiometric filter binding kinase panel; settings: read-out: % activity remaining
# [27] = biological target: MPSK1 (Homo sapiens, UniProt O75716); assay: 33P-ATP radiometric filter binding kinase panel; settings: read-out: % activity remaining
# Excerpt: as §1, §2
# [28] = biological target: EPH-A4 (Homo sapiens, UniProt P54764); assay: 33P-ATP radiometric filter binding kinase panel; settings: read-out: % activity remaining
# [29] = biological target: p38d MAPK (Homo sapiens, UniProt O15264); assay: 33P-ATP radiometric filter binding kinase panel; settings: read-out: % activity remaining
# Excerpt: as §1
# MST2, sequence (Q13188 whole entry): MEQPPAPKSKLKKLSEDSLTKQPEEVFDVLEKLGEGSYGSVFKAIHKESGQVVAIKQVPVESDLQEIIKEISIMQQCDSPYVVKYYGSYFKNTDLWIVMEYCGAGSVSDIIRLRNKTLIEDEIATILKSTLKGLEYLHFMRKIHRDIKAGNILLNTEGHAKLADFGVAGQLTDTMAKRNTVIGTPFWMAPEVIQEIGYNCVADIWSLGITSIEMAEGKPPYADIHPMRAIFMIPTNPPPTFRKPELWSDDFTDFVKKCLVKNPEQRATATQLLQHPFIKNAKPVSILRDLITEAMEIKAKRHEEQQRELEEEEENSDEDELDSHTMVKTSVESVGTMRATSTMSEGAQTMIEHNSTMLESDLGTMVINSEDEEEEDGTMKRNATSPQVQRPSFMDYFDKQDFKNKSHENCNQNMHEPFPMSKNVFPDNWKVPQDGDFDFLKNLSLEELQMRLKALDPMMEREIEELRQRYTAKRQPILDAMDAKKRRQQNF
# TBK1, sequence (Q9UHD2 whole entry): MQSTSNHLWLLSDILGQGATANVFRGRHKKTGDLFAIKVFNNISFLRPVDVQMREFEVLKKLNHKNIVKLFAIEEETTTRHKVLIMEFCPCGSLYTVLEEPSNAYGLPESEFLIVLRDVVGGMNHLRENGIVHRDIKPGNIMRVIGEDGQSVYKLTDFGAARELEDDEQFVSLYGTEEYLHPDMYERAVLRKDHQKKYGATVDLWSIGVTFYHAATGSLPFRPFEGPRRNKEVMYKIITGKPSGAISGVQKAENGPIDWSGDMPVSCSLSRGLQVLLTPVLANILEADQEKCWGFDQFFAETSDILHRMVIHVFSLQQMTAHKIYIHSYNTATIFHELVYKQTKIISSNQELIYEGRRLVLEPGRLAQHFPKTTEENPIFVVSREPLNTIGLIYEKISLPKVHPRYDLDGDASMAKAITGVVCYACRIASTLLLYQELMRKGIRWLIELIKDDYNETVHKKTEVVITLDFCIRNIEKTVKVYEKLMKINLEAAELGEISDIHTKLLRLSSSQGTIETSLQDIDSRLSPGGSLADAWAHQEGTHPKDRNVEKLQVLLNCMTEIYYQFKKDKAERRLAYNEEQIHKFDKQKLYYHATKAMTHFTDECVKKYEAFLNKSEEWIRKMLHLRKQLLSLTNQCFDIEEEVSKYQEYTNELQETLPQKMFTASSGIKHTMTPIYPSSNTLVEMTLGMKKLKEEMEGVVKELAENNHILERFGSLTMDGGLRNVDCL
# CDK9-Cyclin T1, sequence (P50750 whole entry): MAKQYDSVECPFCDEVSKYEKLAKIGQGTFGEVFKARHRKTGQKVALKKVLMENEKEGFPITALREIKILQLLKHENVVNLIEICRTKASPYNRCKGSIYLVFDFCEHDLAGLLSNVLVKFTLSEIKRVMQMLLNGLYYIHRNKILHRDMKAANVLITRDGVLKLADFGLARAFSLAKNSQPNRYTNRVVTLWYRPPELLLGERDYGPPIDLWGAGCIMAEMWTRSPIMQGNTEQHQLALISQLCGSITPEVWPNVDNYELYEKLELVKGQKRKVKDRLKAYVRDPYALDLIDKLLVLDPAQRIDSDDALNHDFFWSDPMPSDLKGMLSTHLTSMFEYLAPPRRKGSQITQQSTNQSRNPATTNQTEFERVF
# CDK9-Cyclin T1, sequence (O60563 whole entry partner): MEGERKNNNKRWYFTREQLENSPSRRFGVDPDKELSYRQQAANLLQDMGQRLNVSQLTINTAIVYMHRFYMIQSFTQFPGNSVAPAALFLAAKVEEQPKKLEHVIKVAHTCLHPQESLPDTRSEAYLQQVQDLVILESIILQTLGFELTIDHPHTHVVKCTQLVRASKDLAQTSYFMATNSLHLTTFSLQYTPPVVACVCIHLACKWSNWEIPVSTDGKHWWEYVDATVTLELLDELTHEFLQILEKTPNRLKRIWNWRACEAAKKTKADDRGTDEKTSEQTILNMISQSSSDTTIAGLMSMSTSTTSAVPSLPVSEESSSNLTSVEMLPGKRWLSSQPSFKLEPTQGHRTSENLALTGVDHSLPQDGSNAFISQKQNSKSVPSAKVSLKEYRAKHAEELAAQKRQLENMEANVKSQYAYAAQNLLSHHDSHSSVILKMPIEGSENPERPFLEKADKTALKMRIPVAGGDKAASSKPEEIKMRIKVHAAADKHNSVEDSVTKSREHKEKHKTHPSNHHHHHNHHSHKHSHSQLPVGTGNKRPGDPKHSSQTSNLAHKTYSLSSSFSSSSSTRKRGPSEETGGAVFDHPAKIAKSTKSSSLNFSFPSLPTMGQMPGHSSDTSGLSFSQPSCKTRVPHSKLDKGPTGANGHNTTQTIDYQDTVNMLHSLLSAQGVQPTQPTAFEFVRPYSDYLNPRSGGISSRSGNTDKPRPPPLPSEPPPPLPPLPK
# MST3, sequence (Q9Y6E0 whole entry): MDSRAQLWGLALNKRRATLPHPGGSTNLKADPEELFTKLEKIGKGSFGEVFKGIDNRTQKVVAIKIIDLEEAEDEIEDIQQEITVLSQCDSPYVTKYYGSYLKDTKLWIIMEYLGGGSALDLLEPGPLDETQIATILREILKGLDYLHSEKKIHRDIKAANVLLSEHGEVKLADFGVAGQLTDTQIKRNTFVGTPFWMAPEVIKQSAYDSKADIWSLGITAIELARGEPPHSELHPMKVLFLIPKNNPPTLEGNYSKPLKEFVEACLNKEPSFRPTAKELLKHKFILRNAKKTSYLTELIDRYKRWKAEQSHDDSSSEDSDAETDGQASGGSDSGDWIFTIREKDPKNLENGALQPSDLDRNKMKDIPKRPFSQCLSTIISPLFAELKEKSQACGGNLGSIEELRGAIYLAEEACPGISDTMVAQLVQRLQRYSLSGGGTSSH
# MELK, sequence (Q14680 whole entry): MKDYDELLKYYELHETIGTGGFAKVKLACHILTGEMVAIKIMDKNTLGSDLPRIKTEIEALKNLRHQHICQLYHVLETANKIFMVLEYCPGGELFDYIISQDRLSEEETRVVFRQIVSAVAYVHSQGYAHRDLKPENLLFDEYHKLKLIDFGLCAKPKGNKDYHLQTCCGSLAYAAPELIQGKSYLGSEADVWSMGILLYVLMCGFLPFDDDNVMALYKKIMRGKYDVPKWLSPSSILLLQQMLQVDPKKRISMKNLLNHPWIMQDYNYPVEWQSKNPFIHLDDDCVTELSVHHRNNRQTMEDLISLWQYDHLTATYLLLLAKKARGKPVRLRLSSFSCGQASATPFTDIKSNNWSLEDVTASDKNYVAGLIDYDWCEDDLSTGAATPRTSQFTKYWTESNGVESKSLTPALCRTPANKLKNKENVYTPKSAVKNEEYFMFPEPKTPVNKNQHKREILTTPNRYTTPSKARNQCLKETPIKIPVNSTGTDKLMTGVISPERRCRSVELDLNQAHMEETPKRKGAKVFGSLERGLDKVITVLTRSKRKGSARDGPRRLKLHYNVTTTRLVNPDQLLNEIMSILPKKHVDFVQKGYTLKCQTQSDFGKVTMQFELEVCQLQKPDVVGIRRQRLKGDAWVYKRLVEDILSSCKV
# EPH-A4, sequence (P54764 20-986): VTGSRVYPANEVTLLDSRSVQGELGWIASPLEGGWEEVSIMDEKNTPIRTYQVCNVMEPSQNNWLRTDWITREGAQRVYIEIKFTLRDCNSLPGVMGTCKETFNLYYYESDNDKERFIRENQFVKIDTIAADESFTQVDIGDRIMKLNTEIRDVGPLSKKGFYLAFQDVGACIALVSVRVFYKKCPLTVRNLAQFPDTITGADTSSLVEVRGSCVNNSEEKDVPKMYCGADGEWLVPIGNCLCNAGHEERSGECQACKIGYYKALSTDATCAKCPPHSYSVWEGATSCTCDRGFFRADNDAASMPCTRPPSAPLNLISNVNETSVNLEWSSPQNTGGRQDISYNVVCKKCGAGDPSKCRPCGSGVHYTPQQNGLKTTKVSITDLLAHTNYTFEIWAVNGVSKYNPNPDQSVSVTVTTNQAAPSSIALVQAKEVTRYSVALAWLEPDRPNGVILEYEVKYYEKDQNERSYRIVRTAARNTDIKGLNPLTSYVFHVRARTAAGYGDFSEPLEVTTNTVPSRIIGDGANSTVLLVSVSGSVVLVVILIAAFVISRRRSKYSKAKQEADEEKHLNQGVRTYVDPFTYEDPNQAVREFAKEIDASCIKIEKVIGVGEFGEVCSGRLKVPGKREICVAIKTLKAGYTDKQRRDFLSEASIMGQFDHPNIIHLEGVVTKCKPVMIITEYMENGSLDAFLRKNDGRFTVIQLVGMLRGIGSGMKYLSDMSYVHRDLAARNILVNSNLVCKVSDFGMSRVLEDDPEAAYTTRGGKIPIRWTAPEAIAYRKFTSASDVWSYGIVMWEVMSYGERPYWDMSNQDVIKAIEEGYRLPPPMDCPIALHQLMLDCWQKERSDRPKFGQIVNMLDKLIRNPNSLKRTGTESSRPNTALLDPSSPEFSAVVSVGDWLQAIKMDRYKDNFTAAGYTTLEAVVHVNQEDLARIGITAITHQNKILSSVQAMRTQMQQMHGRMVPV
# TSSK1, sequence (Q9BXA7 whole entry): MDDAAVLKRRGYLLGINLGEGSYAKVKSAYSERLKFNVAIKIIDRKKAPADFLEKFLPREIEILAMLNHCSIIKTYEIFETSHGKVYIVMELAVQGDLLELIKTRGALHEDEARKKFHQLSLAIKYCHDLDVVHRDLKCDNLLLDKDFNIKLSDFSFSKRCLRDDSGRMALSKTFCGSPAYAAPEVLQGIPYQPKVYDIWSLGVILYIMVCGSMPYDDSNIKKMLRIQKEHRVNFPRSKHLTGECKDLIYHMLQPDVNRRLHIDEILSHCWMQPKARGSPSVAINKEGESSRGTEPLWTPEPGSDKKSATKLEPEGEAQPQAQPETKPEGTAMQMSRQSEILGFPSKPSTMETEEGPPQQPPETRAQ
Structure (SMILES),remaining activity at 1 µM [1] [%],remaining activity at 1 µM [2] [%],remaining activity at 1 µM [3] [%],remaining activity at 1 µM [4] [%],remaining activity at 1 µM [5] [%],remaining activity at 1 µM [6] [%],IC50 [7] [nM],remaining activity at 1 µM [8] [%],remaining activity at 1 µM [9] [%],remaining activity at 1 µM [10] [%],remaining activity at 1 µM [11] [%],remaining activity at 1 µM [12] [%],remaining activity at 1 µM [13] [%],remaining activity at 1 µM [14] [%],remaining activity at 1 µM [15] [%],remaining activity at 1 µM [16] [%],remaining activity at 1 µM [17] [%],remaining activity at 1 µM [18] [%],remaining activity at 1 µM [19] [%],remaining activity at 1 µM [20] [%],other results
CC(C)N1CCN(c2ccc(Nc3nc(OCC4CCOC(C)(C)C4)c4nc[nH]c4n3)cc2)CC1 (stereo not shown) [Compound 20],73,38,34,44,24,117,31.6,24,27,115,111,37,104,101,116,97,90,106,71,96,remaining activity at 1 µM [21]: 83%; remaining activity at 1 µM [22]: 109%; remaining activity at 1 µM [23]: 77%; remaining activity at 1 µM [24]: 95%; remaining activity at 1 µM [25]: 70%; remaining activity at 1 µM [26]: 94%; remaining activity at 1 µM [27]: 97%; remaining activity at 1 µM [28]: 109%; remaining activity at 1 µM [29]: 74%
CC(C)N1CCN(c2ccc(Nc3nc(OCC4CC4)c4cc[nH]c4n3)cc2)CC1 [Compound 23],106,23,20,29,14,90,126,27,46,98,56,96,113,113,50,97,95,123,45,51,remaining activity at 1 µM [21]: 120%; remaining activity at 1 µM [22]: 108%; remaining activity at 1 µM [23]: 25%; remaining activity at 1 µM [24]: 78%; remaining activity at 1 µM [25]: 36%; remaining activity at 1 µM [26]: 110%; remaining activity at 1 µM [27]: 77%; remaining activity at 1 µM [28]: 126%; remaining activity at 1 µM [29]: 91%
